Where two headings read alike, the source gives them in different places.
What was measured:
human 5-HT1B receptor = target: T1, human 5-HT1B receptor (Homo sapiens, UniProt P28222); experiment: Radioligand competition binding and kinetics, CHO-K1 membranes
T1 construct: purchased Euroscreen; host or cells: CHO-K1
Protocol: (§1) For kinetics of radioligand competitive binding, serial dilutions were performed from master solution in 100% DMSO to obtain intermediate concentrations 200-fold higher than the concentrations to be tested. Each test sample was diluted 100-fold in the assay buffer and dispensed into the test plate.
5-HT1B Radioligand Binding Assay
Assay buffer: 50 mM Tris (pH 7.4), 12.5 mM MgCl2, 0.1% ascorbic acid, 1 mM EDTA Washing buffer: 50 mM Tris (pH 7.4) Membrane: recombinant CHO-K1-5-HT1B membranes thawed on ice and diluted in assay buffer (7 μg/well)
Ligand: 5-CT (Tocris, 0458)
Radioligand: [^3H]-CT (Perkin Elmer, TRK1038, diluted in assay buffer for a final concentration of 0.6 nM) Filter plate: GF/B Unifilter plate (Perkin Elmer, 6005177) presoaked in 0.5% PEI for 2 hours at RT.
(§2) Determination of the Kon constant. Radioligand association kinetics on each receptor were performed by adding in the wells of a 96 well plate 50 μL of radioligand and 50 μL of membrane extracts. The samples were incubated for the times reported in Table 3 below at a temperature optimized for each receptor and filtered over a filter plate. After washing the filters 5 times with 0.5 mL of ice-cold washing buffer, 50 μL of Microscint 20 (Packard) were added to the filters and the plates were incubated 15 min on an orbital shaker and then counted for 1 min/well. This allowed determination of the kobs for each radioligand. Association kinetics were performed at 5 different radioligand concentrations optimized for each receptor (see Table 3 below) to determine 5 different kobs. The different kobs were then plotted against the [radioligand] and the K. was calculated using the following equation: kon=(kobs−koff)[radioligand].
(§3) Determination of the Koff constant. Radioligand dissociation kinetics on each receptor were performed by adding in the wells of a 96 well plate 45 μL of radioligand and 45 μL of membrane extracts. The samples were incubated as reported in Table 4 below at a temperature optimized for each receptor until binding equilibrium was reached as determined by the association kinetics experiment. Then, 100 μL of cold competitor (reference ligand) were added at a 200 fold excess (final concentration) for the times reported in Table 4 at the optimized temperature. The samples were then filtered over a filter plate. After washing the filters 5 times with 0.5 mL of ice-cold washing buffer, 50 μL of Microscint 20 (Packard) were added to the filters and the plates were incubated 15 min on an orbital shaker and then counted for 1 min/well. This allowed determination of the koff for each radioligand.
Determination of IC50 and Ki constant for each test compound. Radioligand competition binding on each receptor were performed by adding in the wells of a 96 well plate […] of test compound at increasing concentration as reported in Table 5 below, 25 μL of radioligand and 25 μL of membrane extracts. The samples were incubated for 60 min (or 4 hours for a second experiment on 5-HT2B receptors) at a temperature optimized for each receptor and then filtered over a filter plate. After washing the filters 5 times with 0.5 mL of ice-cold washing buffer, 50 μL of Microscint 20 (Packard) were added to the filters and the plates were incubated 15 min on an orbital shaker and then counted for 1 min/well. The test compounds were tested in duplicate at the nanomolar concentrations reported below in Table 5.
Determination of kon and koff constants for each test compound. Each compound was first assessed in a pilot experiment to evaluate its effect on the kinetic binding of each receptor-radioligand pair. These pilot experiments were performed at on compound concentration and were composed of 10 time-points measurements in duplicate (2, 5, 10, 20, 30, 45, 60, 90, 120 and 150 minutes).

human 5-HT2B receptor = target: T2, human 5-HT2B receptor (Homo sapiens, UniProt P41595); experiment: as above
T2 construct: purchased Euroscreen; host or cells: CHO-K1
T2 sequence (P41595 whole entry): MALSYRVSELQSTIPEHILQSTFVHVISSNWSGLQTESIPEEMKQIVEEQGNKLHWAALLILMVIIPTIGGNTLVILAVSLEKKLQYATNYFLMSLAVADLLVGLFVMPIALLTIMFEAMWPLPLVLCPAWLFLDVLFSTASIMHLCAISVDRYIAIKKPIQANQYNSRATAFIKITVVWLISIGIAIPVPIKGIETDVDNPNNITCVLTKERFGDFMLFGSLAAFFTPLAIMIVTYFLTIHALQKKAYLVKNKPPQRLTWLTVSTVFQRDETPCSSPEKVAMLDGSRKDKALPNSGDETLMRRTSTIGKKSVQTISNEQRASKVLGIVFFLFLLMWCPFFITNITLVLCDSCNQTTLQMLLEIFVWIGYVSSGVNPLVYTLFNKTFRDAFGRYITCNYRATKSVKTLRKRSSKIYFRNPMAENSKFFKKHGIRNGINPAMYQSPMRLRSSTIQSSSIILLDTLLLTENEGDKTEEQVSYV
Protocol: as §1
Ligand: 5-HT (Sigma, H-9523)
as §2, §3
Determination of IC50 and Ki constant for each test compound. […] After washing the filters 5 times with 0.5 mL of ice-cold washing buffer, 50 μL of Microscint 20 (Packard) were added to the filters and the plates were incubated 15 min on an orbital shaker and then counted for 1 min/well. […]
Determination of kon and koff constants for each test compound. Each compound was first assessed in a pilot experiment to evaluate its effect on the kinetic binding of each receptor-radioligand pair. […]

[1] = target: T3, human Serotonin 5-HT1F receptor (Homo sapiens, UniProt P30939); experiment: cAMP HTRF functional assay (agonist/antagonist); format: cell-based
T3 construct: expressed in transfected cells; host or cells: CHO-K1
T3 sequence (P30939 whole entry): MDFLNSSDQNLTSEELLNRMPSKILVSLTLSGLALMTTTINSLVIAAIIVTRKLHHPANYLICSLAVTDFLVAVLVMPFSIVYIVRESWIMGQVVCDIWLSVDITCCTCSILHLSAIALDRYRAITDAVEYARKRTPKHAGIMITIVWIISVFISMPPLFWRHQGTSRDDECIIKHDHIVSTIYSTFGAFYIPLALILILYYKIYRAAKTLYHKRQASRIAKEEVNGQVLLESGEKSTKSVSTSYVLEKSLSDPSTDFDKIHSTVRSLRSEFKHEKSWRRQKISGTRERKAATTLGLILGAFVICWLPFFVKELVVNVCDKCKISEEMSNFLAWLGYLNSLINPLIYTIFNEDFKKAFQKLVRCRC
Protocol: Functional profiling of agonist and antagonist activities of 8′-OH DHE on human Adrenergic α1D, Dopamine D2L, and Serotonin 5-HT1B, 5-HT1D, 5-HT1F, 5-HT3, 5-HT4e and 5-HT5A receptors (compared against the parent (DHE) molecule) was carried out as follows.
The SPA 35S-GTPγS tests were conducted with Euroscreen membrane preparations […]. The HTRF assays were conducted with recombinant cell lines. The receptor accession numbers, cellular background and reference compounds are as reported below in Table 10.
(4) DHE and 8′-OH DHE were tested for agonist and antagonist activity at the human Serotonin 5-HT1F and Serotonin 5-HT4E receptors using cAMP HTRF assay (in triplicate) at the following nanomolar concentrations: […]
Agonist activity of the test compounds was expressed as a percentage of the activity of the reference agonist at its EC100 concentration. Antagonist activity of the test compounds was expressed as a percentage of the inhibition of the reference agonist activity at its EC80 concentration. Dose-response data from the test compounds were analyzed with XLfit (IDBS) software using nonlinear regression applied to a sigmoidal dose-response model and the following equation: […]

T1 sequence (P28222 whole entry): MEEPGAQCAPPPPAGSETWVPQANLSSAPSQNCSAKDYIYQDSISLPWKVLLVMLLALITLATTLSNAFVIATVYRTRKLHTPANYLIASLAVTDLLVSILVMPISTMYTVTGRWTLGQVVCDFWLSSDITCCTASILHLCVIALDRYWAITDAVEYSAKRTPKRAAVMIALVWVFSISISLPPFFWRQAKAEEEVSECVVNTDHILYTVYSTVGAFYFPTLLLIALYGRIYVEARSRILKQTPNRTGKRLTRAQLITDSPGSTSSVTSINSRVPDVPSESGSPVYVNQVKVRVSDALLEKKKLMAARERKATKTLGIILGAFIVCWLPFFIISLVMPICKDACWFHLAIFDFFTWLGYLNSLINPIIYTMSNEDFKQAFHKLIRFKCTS

Compound	IC50 (human 5-HT1B receptor) [nM]	Avg Dissociation half-life (human 5-HT1B receptor; 5-HT1B) [h]	koff (human 5-HT1B receptor; read-out: Avg Koff) [s⁻¹]	IC50 (human 5-HT2B receptor) [nM]	Agonist and antagonist activity [1]	Avg Koff (human 5-HT1B receptor; 5-HT1B) [s⁻¹]	IC50 (human 5-HT1B receptor; 5-HT1B, [3H]-CT, read-out: IC50 from binding assay) [nM]	IC50 (human 5-HT2B receptor; 5-HT2B, [3H]-Mesulergine, read-out: IC50 from binding assay) [nM]
CN1C[C@H](C(=O)N[C@]2(C)O[C@@]3(O)[C@@H]4CCCN4C(=O)[C@H](Cc4ccccc4)N3C2=O)C[C@@H]2c3cccc4[nH]cc(c34)C[C@H]21 [DHE, Dihydroergotamine]	0.55	1.38	0.00014	12.9	inactive			
CN1C[C@H](C(=O)N[C@]2(C)O[C@@]3(O)[C@@H]4CCC(O)N4C(=O)[C@H](Cc4ccccc4)N3C2=O)C[C@@H]2c3cccc4[nH]cc(c34)C[C@H]21 (stereo partly shown) [8′-OH DHE, 8′-Hydroxy-Dihydroergotamine]		1.94			inactive	9.83e-05	0.77	7.73

From patent US20150306096A1, “8'-HYDROXY-DIHYDROERGOTAMINE COMPOUNDS AND COMPOSITIONS” (MAP Pharmaceuticals, Inc., priority 2012, published 2015)
